27 compounds from ChEMBL document CHEMBL1201862, “PubChem BioAssay data set” (2004) can be followed below.

Each structure is given as a SMILES string.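 Each compound was tested at five concentrations against cells in 96-well plates for 48 hours. The concentration for 50% growth inhibition is given as GI50.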 Active and inactive are the calls of the source. No stated cut-off is given here; in the data, active = GI50 up to about 1.1 µM and inactive = higher.

Among the test systems are LXFL 529; RXF 631; KM-20L2; HOP-18; SNB-78; XF498; DLD-1; M19-MEL; DMS-114.
Experiment in all cases: DTP human tumour cell line panel, 48 h

A word on the GI50: it is the concentration at which growth is held to half of that of the control. For the compound `COC1=C2C[C@@H](C)C[C@@H](OC)[C@@H](O)[C@H](C)/C=C(\C)[C@@H](OC(N)=O)[C@H](OC)/C=C\C=C(/C)C(=O)NC(=CC1=O)C2=O`, the concentration for 50% growth inhibition (GI50) with LXFL 529 is 0.0267 µM (active); with RXF 631, 0.71 µM (active); in the test on KM-20L2, 0.0266 µM (active); in the test on HOP-18 it was 0.159 µM (active); in the test on SNB-78, 1.04 µM (active); in the test with XF498, 0.0787 µM (active). The GI50 in the test with DLD-1 was 0.0679 µM (active).

`CC(C)(C)C(=O)ON1N=NC2C3CC(OCc4ccccc4)(OCc4ccccc4)C(O3)C21` (stereo not drawn): the GI50 was 11.1 µM (inactive) in the test on LXFL 529; 24.7 µM (inactive) with RXF 631; 28.4 µM (inactive) in the test with KM-20L2; 24.2 µM (inactive) in the test with HOP-18; 15.8 µM (inactive) with M19-MEL; 26 µM (inactive) in the test with SNB-78. Besides, the GI50 with XF498 is 18.9 µM (inactive); in the test on DLD-1 it was 15.6 µM (inactive).

Take `O=Cc1ccccc1OCCOc1cc(OCCOc2ccccc2C=O)c(OCCOc2ccccc2C=O)cc1OCCOc1ccccc1C=O`: the GI50 was 33.7 µM (inactive) in the test with LXFL 529; > 100 µM (inactive) in the test on KM-20L2; > 49.4 µM (inactive) in the test on HOP-18; 47.3 µM (inactive) in the test on DMS-114; > 100 µM (inactive) in the test on M19-MEL; 45.1 µM (inactive) in the test with SNB-78. The GI50 is > 39.1 µM (inactive) in the test with XF498 and 40.7 µM (inactive) in the test with DLD-1.

Take `N#CC(C(=O)CCC(=O)Nc1cccc(C(F)(F)F)c1)c1ccccc1` (stereo not drawn): the GI50 in the test with LXFL 529, in the test on KM-20L2, in the test with DMS-114, in the test with M19-MEL, in the test on SNB-78 and in the test with XF498 was > 100 µM (inactive) throughout. Also, the GI50 in the test with DLD-1 is > 100 µM (inactive).

`COc1cc(/C=C/c2csnn2)cc(OC)c1OC`: the GI50 in the test on LXFL 529, in the test with HOP-18, in the test with DMS-114, in the test with M19-MEL, in the test on SNB-78 and with XF498 was > 100 µM (inactive) in each case. In the test on DLD-1, the GI50 was > 100 µM (inactive).

As for `CCO/C([O-])=C(/C=O)[n+]1c(C)n(C)c2ccccc21`, the GI50 in the test on LXFL 529, in the test on KM-20L2, in the test on HOP-18, with DMS-114, in the test with M19-MEL and with SNB-78 was > 100 µM (inactive) throughout. In the test on DLD-1, the GI50 was > 100 µM (inactive).

As for `C1CCC(N=C2N(C3CCCCC3)C(=NC3CCCCC3)N2C2CCCCC2)CC1`, the GI50 in the test on LXFL 529, in the test with KM-20L2, in the test on HOP-18, in the test with DMS-114, with M19-MEL and in the test on XF498 was > 100 µM (inactive) throughout. Besides, the GI50 in the test on DLD-1 is > 100 µM (inactive).

For `CCN(CC)C(=O)Cc1[nH][nH]c(=O)c1C(=O)N(CC)CC`, the GI50 in the test with LXFL 529, in the test with KM-20L2, in the test with HOP-18, in the test with DMS-114, with M19-MEL and in the test on SNB-78 was > 100 µM (inactive) in each case. The GI50 in the test with XF498 and in the test with DLD-1 was > 100 µM (inactive) throughout.

Regarding `Cc1nc(C(N)=S)sc1C(=O)CC(=O)C(=O)Nc1c(C(C)C)cccc1C(C)C`, the GI50 in the test on LXFL 529 is 52 µM (inactive); in the test with KM-20L2 it was 41.3 µM (inactive); in the test with HOP-18, 35.9 µM (inactive); with DMS-114 it was 26.7 µM (inactive); with M19-MEL it was 34.1 µM (inactive); in the test with SNB-78, 66.2 µM (inactive). Also, the GI50 is 24.5 µM (inactive) in the test on XF498 and 55.2 µM (inactive) in the test on DLD-1.

As for `CN(C)CCNC(=O)c1cccc2nc3ccc4cccnc4c3nc12`, the 50% growth inhibitory concentration (GI50) in the test on RXF 631 is 0.132 µM (active); in the test with HOP-18, 1.78 µM (inactive); in the test with DMS-114, 0.533 µM (active); in the test with M19-MEL, 0.43 µM (active); with SNB-78, 0.482 µM (active); with DLD-1, 0.24 µM (active).

In the case of `CN(C)CCNC(=O)c1cc([N+](=O)[O-])cc2ccc(-c3ccccc3)nc12`, the GI50 with LXFL 529 was 18.3 µM (inactive); in the test on KM-20L2, 6.46 µM (inactive); in the test with HOP-18, 4.97 µM (inactive); in the test on DMS-114, 7.16 µM (inactive); in the test with M19-MEL it was 5.93 µM (inactive); in the test with SNB-78, 17.8 µM (inactive). In addition, the GI50 was 7.19 µM (inactive) with XF498 and 9.2 µM (inactive) in the test on DLD-1.

As for `c1ccc(C2=NOC3C4CCC(C4)C23)cc1` (stereo not drawn), the GI50 in the test on LXFL 529, with HOP-18, in the test on DMS-114, in the test on M19-MEL, with SNB-78 and with DLD-1 was > 100 µM (inactive) throughout.

With `O=C(CC1(O)C(=O)Nc2ccccc21)c1ccc(O)cc1O` (stereo not drawn), the GI50 in the test with LXFL 529, in the test with KM-20L2, in the test with DMS-114, with M19-MEL, in the test on SNB-78 and in the test on XF498 was > 100 µM (inactive) each time. The GI50 in the test with DLD-1 is > 100 µM (inactive).

`COc1ccc(/C=C/C(=O)C(C)C)cc1`: the GI50 with LXFL 529 was 21.7 µM (inactive); in the test on KM-20L2, 25.1 µM (inactive); with HOP-18 it was 41.4 µM (inactive); with DMS-114, 15.2 µM (inactive); with M19-MEL, 59.6 µM (inactive); with SNB-78 it was 14.9 µM (inactive). Further, the results for the GI50 in the test with XF498 and in the test on DLD-1 were > 100 µM (inactive) and 63.1 µM (inactive), respectively.

Turning to `CC(=O)NC(CCCCN(Cc1ccccc1)C(=O)NCCCl)C(=O)NCc1ccccc1` (stereo not drawn), the GI50 in the test on LXFL 529 is > 100 µM (inactive); in the test with RXF 631 it was > 100 µM (inactive); with KM-20L2, > 100 µM (inactive); with HOP-18, 29.1 µM (inactive); with DMS-114, > 100 µM (inactive); with DLD-1, > 100 µM (inactive).

As for `Nc1ncnc2c1ncn2C1CC(OC2CCCCO2)C(CO)O1` (stereo not drawn), the GI50 in the test with LXFL 529, with KM-20L2, in the test on HOP-18, with DMS-114, in the test on M19-MEL and with SNB-78 was > 100 µM (inactive) each time. Also, the GI50 with XF498 and in the test with DLD-1 was > 100 µM (inactive) each time.

As to `O=C1Nc2cc([N+](=O)[O-])c(Br)cc2C1=O`, the GI50 was 18.5 µM (inactive) in the test with RXF 631; 15.3 µM (inactive) in the test with KM-20L2; 17.5 µM (inactive) in the test on DMS-114; 16.4 µM (inactive) in the test with M19-MEL; 23.3 µM (inactive) with SNB-78; 12.1 µM (inactive) in the test with XF498. Further, the GI50 in the test with DLD-1 was 22.2 µM (inactive).

Regarding `CCOC(=O)CN1C(=O)c2cccc3cc([N+](=O)[O-])cc(c23)C1=O`, the GI50 in the test with LXFL 529 is 1.71 µM (inactive); with KM-20L2 it was 13.3 µM (inactive); in the test on HOP-18 it was 19.7 µM (inactive); in the test with DMS-114 it was 2.28 µM (inactive); in the test with SNB-78, 5.82 µM (inactive); with XF498, 2.03 µM (inactive). For the same compound, the GI50 in the test with DLD-1 is 2.21 µM (inactive).

On to `COC(=O)/C(=N/NC(N)=O)C(C(=O)OC)C(=O)C(=O)Nc1ccc(Cl)cc1` (stereo not drawn), for which the GI50 was > 100 µM (inactive) with LXFL 529; > 100 µM (inactive) in the test on KM-20L2; > 100 µM (inactive) with HOP-18; > 71.8 µM (inactive) in the test on DMS-114; > 100 µM (inactive) in the test with M19-MEL; > 100 µM (inactive) in the test with XF498. In the test on DLD-1, the GI50 was > 100 µM (inactive).

For `CCOc1cccc2c1N[S@@](=O)S2`, the GI50 in the test on LXFL 529 was 58.7 µM (inactive); in the test with RXF 631, > 100 µM (inactive); in the test on KM-20L2, > 100 µM (inactive); with M19-MEL, > 100 µM (inactive); in the test on SNB-78 it was > 100 µM (inactive); in the test on XF498, 78.7 µM (inactive). Further, the GI50 in the test with DLD-1 was > 100 µM (inactive).

Consider `ClC1c2ccccc2C2(c3ccccc3)OOC1(c1ccccc1)O2` (stereo not drawn), for which the figures for the GI50 in the test on KM-20L2, in the test with DMS-114 and in the test on SNB-78 were 1.68 µM (inactive), 0.267 µM (active) and 1.45 µM (inactive), respectively.

On to `Cc1c2cc[n+](COC(=O)c3ccccc3)cc2c(C)c2c1[nH]c1ccccc12`, for which the concentration for 50% growth inhibition (GI50) was 0.506 µM (active) in the test with LXFL 529; 0.641 µM (active) in the test with KM-20L2; < 0.01 µM (active) in the test on HOP-18; 0.75 µM (active) in the test on DMS-114; 0.743 µM (active) in the test with M19-MEL; 1.32 µM (inactive) in the test on SNB-78. Further, the GI50 in the test on XF498 is 1.62 µM (inactive).

As to `NC1CCCCC1.O=P(O)(O)C1(P(=O)(O)O)CC1`, the GI50 with LXFL 529, with KM-20L2, in the test with DMS-114, with M19-MEL, in the test with SNB-78 and with XF498 was > 100 µM (inactive) each time.

For the compound `CN[C@@H](C)[C@H](N)c1ccccc1`, the GI50 with LXFL 529, in the test on RXF 631, with HOP-18, with SNB-78 and with DLD-1 was > 100 µM (inactive) in each case.

As for `CCCCCCCCCC(=O)OCC1OC(n2cc(F)c(=O)[nH]c2=O)C(N)C(OC(=O)CCCCCCCCC)C1O` (stereo not drawn), the GI50 was 16.6 µM (inactive) in the test on LXFL 529; 19 µM (inactive) with KM-20L2; 15.7 µM (inactive) with DMS-114; 17.4 µM (inactive) with M19-MEL; 15.8 µM (inactive) in the test on SNB-78.

Consider `COc1cccc2c1C(=O)c1c(O)c3c(c(O)c1C2=O)C[C@@](O)(C(=O)CO)CC3OC1CC(N)C(OC2CCCCO2)C(C)O1` (stereo partly drawn), for which the GI50 in the test on LXFL 529 was 0.668 µM (active); in the test with KM-20L2 it was 0.561 µM (active); in the test on HOP-18, 0.0977 µM (active); with SNB-78 it was 1.5 µM (inactive); with XF498, 0.54 µM (active); in the test on DLD-1, 1.82 µM (inactive).

In the case of `CC(=O)NC1=C(C)C(=O)c2c(nc3n2CCC3O)C1=N` (stereo not drawn), the GI50 in the test on KM-20L2 was 19.5 µM (inactive); in the test on HOP-18, 17.6 µM (inactive); in the test on DMS-114, 3.4 µM (inactive); in the test with M19-MEL, 2.36 µM (inactive); in the test on SNB-78, 3.05 µM (inactive); in the test on XF498, 3.81 µM (inactive). Moreover, the GI50 with DLD-1 is 11.6 µM (inactive).
